Data on nine molecules can be found in article PMC9856062, “Nano-Zirconium Dioxide Catalyzed Multicomponent Synthesis of Bioactive Pyranopyrazoles That Target Cyclin Dependent Kinase 1 in Human Breast Cancer Cells” (Biomedicines, 2023).

Molecules are shown by their SMILES. “And” between values parts separate entries of the source, which are not always exact repeats. Equal values may be shown once. Read-outs that look alike come from different tables or passages of the source.

Data set [1] relates to MCF-7 cells. Briefly: MCF-7 cell viability assay (Alamar Blue). Type of data set: cell-based, human. The conditions noted are these: for IC50: MCF-7 cells; for effect on viability of MCF-7 cells: 0, 0.01, 0.1, 10, and 100 µM. The method, then:
We obtained MCF-7 cells from Procell Life Science and Technology. A humidified atmosphere of 5% CO2 was maintained at 37 °C for the culture of MCF-7 cells (2000) in MEM or Leibovitz’s L-15 medium enriched with 2% FBS [21, 22, 23, 24]. DMSO was used to prepare a stock solution of pyranopyrazoles, and the stock solution was then diluted with culture medium to achieve the desired concentration. […] Incubation with AlamarBlue assay reagent was performed for a further 4 h. According to the established protocol, the IC50 values of compounds were determined in the absence and presence of pyranopyrazoles.
Figure 4 Loss of MCF-7 cell viability produced by compounds 5b 5d, and 5f. MCF-7 cells were exposed to 5b (A), 5d (B), and 5f (C) for 72 h and the viability of cells was analyzed by Alamar Blue assays. The results are presented as mean ± S.E.M. of triplicate determinations.
On the technique in general: Alamar Blue is a resazurin reagent that responds to reducing activity.

Data set [2] deals with MDA-MB-231. The data set can be described thus: Breast cancer cell proliferation, Alamar Blue, MDA-MB-231. The format is cell-based. The following applies: Homo sapiens, 72 h; MDA-MB-231 cells, 2% FBS medium, 3 days.
For data set [3], the system named is BT-474 cells. The data set can be described thus: Breast cancer cell proliferation, Alamar Blue, BT-474. The format is cell-based. The conditions noted are these: Homo sapiens, 72 h, 2% FBS medium, 3 days.
Data set [4] relates to SKBR3. The data set can be described thus: Breast cancer cell proliferation, Alamar Blue, SKBR3. The format is cell-based. The following applies: Homo sapiens, SK-BR-3, 72 h; SKBR3 cells, 2% FBS medium, 3 days.
Data set [5] concerns MCF-10A cells. The data set can be described thus: Cytotoxicity to normal breast cells, Alamar Blue, MCF-10A. The format is cell-based. The following applies: Homo sapiens, 72 h; MCF-10A normal breast cells, 2% FBS medium, 3 days.
Data set [6] concerns T47D. The data set can be described thus: Breast cancer cell proliferation, Alamar Blue, T47D. The format is cell-based. The following applies: Homo sapiens, 72 h; T47D cells, 2% FBS medium, 3 days.
In data set [7] the target is T1, CDK1 (Homo sapiens, UniProt P06493). Briefly: CDK1 kinase assay (ADP-Glo / Kinase-Glo luminescence). The format is biochemical. Further details: 1 mg of CDK1 antibodies were used to immunoprecipitate 1 mg of protein from the total cell lysate; endogenous in cells; host or cells: total cell lysate. On the procedure: Promega’s Kinase-Glo luminescence assay was used for detection of CDK1 activity. IgG was used as a negative control, and 1 mg of CDK1 antibodies were used to immunoprecipitate 1 mg of protein from the total cell lysate. At […], the reaction mixture was incubated for three hours and subsequently, beads were washed three times with lysis buffer, following overnight incubation at […]. The reactant beads were added to […] kinase reaction buffer containing 0.2 mM ATP, 2 mM DTT, 0.1 mg/mL BSA, 20 mM MgCl2, and 40 mM Tris-HCl, and beads were resuspended for 30 min at room temperature with a CDK1/2 specific substrate (p53). A total of 10 µl of ADP-GLO reagent and […] of kinase detection reagent were added to the reaction for 40 min at room temperature and 5 min at room temperature, respectively. […]
Since the ADP-GloTM Kinase Assay uses multiple enzymes as components, it should not generate a high rate of interference or false responses when screening pyranopyrazoles anti-CDK1 activity. […] Based on the luminescence units for compounds 5b and 5f, Figure 8 illustrates the standard curves generated for inhibition of cdk1 activity by pyranopyrazoles at different concentrations. […]
Figure 8 In vitro inhibition of CDK1 by compounds 5b (A) and 5f (B). The inhibitory effect of pyranopyrazoles on CKD1 measured using ADP−Glo™ reagent. […]

In data set [8] the target is T1, CDK1. The arrangement: method as in PMID 34156352. The following applies: literature value; cited from earlier work.

T1 sequence (P06493 whole entry): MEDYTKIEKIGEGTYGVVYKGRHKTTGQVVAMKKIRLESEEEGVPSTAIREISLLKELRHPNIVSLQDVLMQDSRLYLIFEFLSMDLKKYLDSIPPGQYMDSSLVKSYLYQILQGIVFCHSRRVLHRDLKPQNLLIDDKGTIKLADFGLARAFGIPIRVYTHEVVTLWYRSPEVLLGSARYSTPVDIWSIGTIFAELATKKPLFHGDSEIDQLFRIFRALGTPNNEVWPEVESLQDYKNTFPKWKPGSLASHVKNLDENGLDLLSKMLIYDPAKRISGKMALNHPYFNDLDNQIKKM
T1 sequence (P14635 whole entry partner): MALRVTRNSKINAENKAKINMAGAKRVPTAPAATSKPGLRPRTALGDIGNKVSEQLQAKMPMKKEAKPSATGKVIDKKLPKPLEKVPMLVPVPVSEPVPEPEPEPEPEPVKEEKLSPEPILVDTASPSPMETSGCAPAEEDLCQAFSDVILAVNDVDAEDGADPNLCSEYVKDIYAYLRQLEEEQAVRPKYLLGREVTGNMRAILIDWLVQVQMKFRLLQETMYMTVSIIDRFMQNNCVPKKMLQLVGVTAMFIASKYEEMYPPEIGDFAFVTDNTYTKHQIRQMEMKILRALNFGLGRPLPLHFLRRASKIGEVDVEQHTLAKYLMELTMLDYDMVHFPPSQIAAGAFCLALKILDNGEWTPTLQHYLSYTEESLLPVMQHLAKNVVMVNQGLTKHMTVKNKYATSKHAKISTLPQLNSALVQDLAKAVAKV

Broadly, the IC50 is the midpoint of a concentration-inhibition curve. Broadly, the melting point is the temperature, or range, at which the solid turns liquid. Consider `Cc1n[nH]c2c1C(c1ccc(-c3cncnc3)cc1)C(C#N)=C(N)O2` (stereo not shown) [5a, 6-Amino-3-methyl-4-(4-(pyrimidin-5-yl)phenyl)-1,4-dihydropy-rano [2,3-c] Pyrazole-5-carbonitrile], for which the melting point fell in the range of 196 to 198 °C. In addition, it took 55 µM to reach half-maximal inhibition in [1] (Homo sapiens, MCF7, 72 h) (IC50).

In data set [1] (Homo sapiens, MCF7, 72 h), `O=C(c1cc(Cc2n[nH]c(=O)c3ccccc23)ccc1F)N1CCN(C(=O)C2CC2)CC1` [Olaparib, reference compound] returned an IC50 of 3.28 µM.

Regarding `Cc1n[nH]c2c1C(c1cccc(-c3ccncc3)c1)C(C#N)=C(N)O2` (stereo not shown) [5c, 6-Amino-3-methyl-4-(3-(pyridin-4-yl)phenyl)-1,4-dihydropyrano [2,3-c] Pyrazole-5-carbonitrile], the melting point lay within 245 to 247 °C. Moreover, it took 15 µM to reach half-maximal inhibition in data set [2] (IC50). Also, the IC50 in [3] is 21.3 µM. Further, in data set [4], the IC50 worked out at 69.4 µM. Also, the midpoint of inhibition in [5], the IC50, lay at 88.2 µM. For the same molecule, the IC50 in data set [6] is 33.7 µM.

The molecule `Cc1nn(-c2ccc(Cl)cc2)c2c1C(c1cccc(-c3cncnc3)c1)C(C#N)=C(N)O2` (stereo not shown) [5g, 6-Amino-1-(4-chlorophenyl)-3-methyl-4-(3-(pyrimidin-5-yl)phenyl)-1,4-dihydropyrano [2,3-c] Pyrazole-5-carbonitrile] had a melting point of 242 to 243 °C.

For the molecule `Cc1cc(-c2ccc(C3C(C#N)=C(N)Oc4[nH]nc(C)c43)cc2)cnc1F` (stereo not shown) [5f, 6-Amino-4-(4-(6-fluoro-5-methylpyridin-3-yl)phenyl)-3-methyl-1,4-dihydropyrano [2,3-c] Pyrazole-5-carbonitrile], the melting point fell in the range of 268 to 269 °C. The “effect on viability of MCF-7 cells” value in data set [1] (72 h) was “dose–dependent decrease”. The same molecule registered an IC50 in [1] (Homo sapiens, MCF7, 72 h) of 23.8 µM. In data set [2], this molecule gave an IC50 of 19.1 µM. In data set [3], this molecule came in with an IC50 of 15.2 µM. The IC50 in data set [4] is > 100 µM. Also, the half-maximal inhibitory concentration (IC50) in data set [5] was > 100 µM. The molecule also yielded an IC50 in data set [7] of 7.16 µM. Also, the IC50 in [6] was 45.8 µM.

Turning to `Cc1cc(-c2cccc(C3C(C#N)=C(N)Oc4[nH]nc(C)c43)c2)cnc1Cl` (stereo not shown) [5d, 6-Amino-4-(3-(6-chloro-5-methylpyridin-3-yl)phenyl)-3-methyl-1,4-dihydropyrano [2,3-c] Pyrazole-5-carbonitrile], the melting point was in the range of 212 to 214 °C. Further, the “effect on viability of MCF-7 cells” value in data set [1] (72 h) is “dose–dependent decrease”. In data set [1] (Homo sapiens, MCF7, 72 h), this molecule came in with an IC50 of 38.9 µM.

Regarding `Cc1cc(-c2cccc(C3C(C#N)=C(N)Oc4[nH]nc(C)c43)c2)cnc1F` (stereo not shown) [5b, 6-Amino-4-(3-(6-fluoro-5-methylpyridin-3-yl)phenyl)-3-methyl-1,4-dihydropyrano [2,3-c] Pyrazole-5-carbonitrile], the melting point is 214 to 215 °C. In data set [1] (72 h), the “effect on viability of MCF-7 cells” value is recorded as “dose–dependent decrease”; the IC50 was 17.2 µM and 17 µM. In data set [1] (Homo sapiens, MCF7, 72 h), this molecule yielded an IC50 of 17.8 µM. In data set [2], this molecule came in with an IC50 of 13.5 µM. Inhibition in [3] was half-maximal at 23.7 µM (IC50). Besides, the IC50 in data set [4] was > 100 µM. Moreover, the IC50 in data set [5] was 90.5 µM. The IC50 in data set [7] turned out to be 0.96 µM. In [6], this molecule yielded an IC50 of 27.5 µM.

In turn, `Cc1n[nH]c2c1C(c1ccc(-c3ccncc3)cc1)C(C#N)=C(N)O2` (stereo not shown) [5e, 6-Amino-3-methyl-4-(4-(pyridin-4-yl)phenyl)-1,4-dihydropyra-no [2,3-c] Pyrazole-5-carbonitrile] registered a melting point of 232 to 234 °C. In data set [1] (Homo sapiens, MCF7, 72 h), the IC50 is > 100 µM. Besides, in [2], the IC50 was 22.1 µM. In data set [3], this molecule came in with an IC50 of 50.2 µM. For the same molecule, the half-inhibitory concentration (IC50) in data set [4] is > 100 µM. For the same molecule, the IC50 in data set [5] is > 100 µM. In data set [6], the IC50 was > 100 µM.

For the molecule `CC(C)CC(=O)Nc1[nH]nc2c1CN(C(=O)C1CCN(C)CC1)C2(C)C` [PHA-793887], in [8], the IC50 is 0.06 µM.
